These results are taken from patent publication US11399541B2, “Storage-stable microbicidal concentrates and use thereof as preservatives” (Vink Chemicals GmbH & Co. KG, priority 2017, dated 2022).

Marks after values point to notes of the source that are not given here.

The test system of experiment [1] is Staphylococcus aureus. Briefly: Staphylococcus aureus Germ Count Reduction Test. The class given is cell-based. To be noted: use-concentration (0.50% Composition 1; 0.0025% amine; 0.0050% butyl-BIT; 0.50% phenoxyethanol), initial count approx. 10^7 cfu/ml; for semi-quantitative assessment of the microbial growth of the streaks, Contact time [min] 2: contact time 2 min; for semi-quantitative assessment of the microbial growth of the streaks, Contact time [min] 5: contact time 5 min; for semi-quantitative assessment of the microbial growth of the streaks, Contact time [min] 10: contact time 10 min; for semi-quantitative assessment of the microbial growth of the streaks, Contact time [min] 60: contact time 60 min. As to the method: (§1) Dilutions of the samples are prepared with sterile tap water. 25 ml portions of the end solutions are inoculated with 0.1 ml microorganism suspension (initial microorganism count approx. 10^7 cfu/ml) and stirred.
For the reduction test with Staphylococcus aureus the solutions are streaked out onto tryptone soya agar after 2,5,10 and 60 minutes.
(§2) The cultures are incubated for 48 hours at 37° C., except for Aspergillus brasiliensis, which is incubated for 72 hours at 25-27° C. The evaluation is made on the basis of semi-quantitative assessment of the microbial growth of the streaks.

The subject of experiment [2] is Aspergillus brasiliensis. In words: Aspergillus brasiliensis Germ Count Reduction Test. The class given is cell-based. The settings on record: use-concentration (0.50% Composition 1; 0.0025% amine; 0.0050% butyl-BIT; 0.50% phenoxyethanol), initial count approx. 10^7 cfu/ml; for semi-quantitative assessment of the microbial growth of the streaks, Contact time [h] 1: contact time 1 h; for semi-quantitative assessment of the microbial growth of the streaks, Contact time [h] 3: contact time 3 h; for semi-quantitative assessment of the microbial growth of the streaks, Contact time [h] 6: contact time 6 h; for semi-quantitative assessment of the microbial growth of the streaks, Contact time [h] 24: contact time 24 h. How it is done:
as §1
For testing the reduction with Aspergillus brasiliensis the solutions are streaked out onto Sabouraud-dextrose 4% agar after 1, 3, 6 and 24 hours.
as §2

On to `CCCCn1sc2ccccc2c1=O` [2-butyl-1,2-benzisothiazolin-3-one], for which, in experiment [1], the “semi-quantitative assessment of the microbial growth of the streaks, Contact time [min] 2” value is reported as “++++ (= massive growth approx. 10^5)”; the “semi-quantitative assessment of the microbial growth of the streaks, Contact time [min] 5” value is recorded as “++++ (= massive growth approx. 10^5)”; the “semi-quantitative assessment of the microbial growth of the streaks, Contact time [min] 10” value is “++++ (= massive growth approx. 10^5)”; the “semi-quantitative assessment of the microbial growth of the streaks, Contact time [min] 60” value is given as “+++ (= heavy growth approx. 10^4)”. Further, in experiment [2], the “semi-quantitative assessment of the microbial growth of the streaks, Contact time [h] 1” value is on record as “++++ (= massive growth approx. 10^5)”; the “semi-quantitative assessment of the microbial growth of the streaks, Contact time [h] 3” value is recorded as “++++ (= massive growth approx. 10^5)”; the “semi-quantitative assessment of the microbial growth of the streaks, Contact time [h] 6” value is given as “++++ (= massive growth approx. 10^5)”; the “semi-quantitative assessment of the microbial growth of the streaks, Contact time [h] 24” value was “++++ (= massive growth approx. 10^5)”.
`CCCCCCCCCCCCN(CCCN)CCCN` [N,N bis(3-aminopropyl)-dodecylamine]: in experiment [1], the “semi-quantitative assessment of the microbial growth of the streaks, Contact time [min] 2” value was “+++ (= heavy growth approx. 10^4)”; the “semi-quantitative assessment of the microbial growth of the streaks, Contact time [min] 5” value is reported as “++ (= moderate growth approx. 10^3)”; the “semi-quantitative assessment of the microbial growth of the streaks, Contact time [min] 10” value is “++ (= moderate growth approx. 10^3)”; the “semi-quantitative assessment of the microbial growth of the streaks, Contact time [min] 60” value was “− (= no growth <100)”. Moreover, in experiment [2], the “semi-quantitative assessment of the microbial growth of the streaks, Contact time [h] 1” value is reported as “C (= surface covered approx. 10^6)”; the “semi-quantitative assessment of the microbial growth of the streaks, Contact time [h] 3” value was “C (= surface covered approx. 10^6)”; the “semi-quantitative assessment of the microbial growth of the streaks, Contact time [h] 6” value is recorded as “++++ (= massive growth approx. 10^5)”; the “semi-quantitative assessment of the microbial growth of the streaks, Contact time [h] 24” value was “++++ (= massive growth approx. 10^5)”.
